Entries after “also recorded” stand apart in the source; their conditions may differ. Where two headings read alike, the source gives them in different places.
Tests used:
[1] = test system: in vitro cultured neurons; conditions: cited from earlier work
[2] = test system: rats with ischemic spasticity; format: in vivo, rat
spasticity = conditions: cited from earlier work; for anti-spasticity effect in clinical studies: systemic (tiagabine: clinically-acceptable doses) or spinal administration
[3] = test system: rats with ischemic spasticity; conditions: intrathecal baclofen (1 μg elsewhere in the source); previous studies, same spinal ischemia-induced spasticity model; cited from earlier work
spastic patients = conditions: intrathecal treatment; cited from earlier work
[4] = test system: lumbar gray matter extracellular GABA; test: Spinal cord microdialysis, extracellular GABA by HPLC; format: in vivo, rat; conditions: tiagabine 40 mg/kg i.p., at 20-40 min
Method: Spinal cord microdialysis was performed in naive (n=6), spastic-non treated (n=6), spastic HIV1-CMV-GFP lentivirus-injected (n=6) and spastic HIV1-CMV-GAD65-GFP (n=6) lentivirus-injected animals. Rats were anesthetized with 2% isoflurane, previous laminectomy site (in lentivirus injected animals) re-exposed and concentric microdialysis probe (A-2-8-02; cut off: MW 50,000; EICOM, Japan) placed into central gray matter between L3-L6 spinal cord segments. Microdialysis fiber was perfused with artificial CSF at 2 μl/min and samples collected on dry ice. After 120 min washout samples were collected in 20 min intervals before and after tiagabine (40 mg/kg, i.p.) injections and analyzed for GABA using HPLC (HTEC-500; EICOM).

[5] = rats; cited from earlier work
brain extracellular GABA = conditions: after systemic administration of 11.5-21 mg/kg; cited from earlier work
[6] = test system: rats with ischemic spasticity; test: Hoffmann reflex (H-wave amplitude) during high frequency (20 Hz) stimulation; format: in vivo, rat
Method: H-reflex was recorded as previously described. Under ketamine anesthesia (100 mg/kg/hr, i.m.) the right hind limb of the animal was secured and a pair of stimulating needle electrodes was transcutaneously inserted into the surroundings of the tibial nerve. For recording, a pair of silver needle electrodes was placed into the interosseous muscles between the fourth and the fifth or the first and the second metatarsal right foot muscles. The tibial nerve was stimulated using square pulses with increasing stimulus intensity (0.1-10 mA in 0.5 mA increments, 0.1 Hz, 0.2 ms; WPI; Isostim A320) and responses were recorded with an A/C-coupled differential amplifier (Model DB4; DPI, Sarasota, Fla.). After the M-max and H-max responses were identified the intensity of stimulus which evoked H-max amplitudes were used in subsequent high frequency (20 Hz) stimulation experiment. In HIV1-CMVGAD65-GFP (n=6) or HIV1-CMV-GFP (n=6) lentivirus-injected animals a high frequency stimulation was performed in 5 min intervals for up to 90 min after tiagabine (40 mg/kg, i.p.) injection. Changes in H-wave amplitude were then compared between both lentivirus-injected groups.

[7] = human patients; cited from earlier work
[8] = test system: upper extremity motor function; test: Side effects / upper extremity motor function in treated spastic rats; format: in vivo, rat

NCCCC(=O)O [GABA, gamma-aminobutryic acid]
concentrations required to exert receptor-mediated effect [1]: 1 to 2 µmol
anti-spasticity effect ([2]; GABA 1 mg intrathecal alone, measured for 60 min): No significant anti-spasticity effect

NCC(CC(=O)O)c1ccc(Cl)cc1 (stereo not shown) [baclofen]
anti-spasticity effect in clinical studies (spasticity): most potent anti-spasticity pharmacological treatment
major side effects limiting chronic use (spasticity; systemic or spinally-administered): general sedation and progressive tolerance development
anti-spasticity effect [3]: potent anti-spasticity effect; also recorded: previously reported anti-spasticity effect
H-reflex activity (spastic patients): significant suppression of H-reflex activity

Cc1ccsc1C(=CCCN1CCC[C@@H](C(=O)O)C1)c1sccc1C [tiagabine]
spinal extracellular GABA concentration, change after tiagabine ([4]; HIV1-CMV-GAD65-GFP lentivirus-injected spastic animals): significant (p<0.05) increase
spinal extracellular GABA concentration, change after tiagabine ([4]; naive animals): significant (p<0.05) increase
anti-spasticity effect in clinical studies (spasticity): only a weak or no anti-spasticity effect
serum half-life [5]: 0.917 h
increase in brain levels of extracellular GABA (brain extracellular GABA): 2-3 fold
change in H-wave amplitude ([6]; tiagabine 40 mg/kg i.p., HIV1-CMV-GAD65-GFP-injected spastic rats, ketamine-sedated): significant (p<0.05) reduction
change in H-reflex amplitudes ([6]; tiagabine 40 mg/kg i.p., control HIV1-CMV-GFP-injected spastic rats, up to 90 min, ketamine-sedated): no change
H-wave amplitude returned back to baseline by ([6]; {}): ≤ 65 min
time window of significant H-wave amplitude reduction after tiagabine injection ([6]; {}): 20 to 45 min
serum half-life [7]: 5 to 8 h
effect on upper limb motor function ([8]; after tiagabine in spastic rats with lumbar GAD65 lentivirus injection): No detectable effect
side effect ([8]; either treatment alone (GAD65-LVs injection only or tiagabine only)): nor had any detectable side effect
effect on upper extremity motor function ([8]; tiagabine 40 mg/kg i.p. + intrathecal GABA 1 mg): No suppressive effect
time of peak anti-spasticity effect after tiagabine administration ([2]; HIV1-CMV-GAD65-GFP-injected spastic rats): 25 min
tiagabine doses providing significant (p<0.01) anti-spasticity effect ([2]; dose response 1, 4, 10, 20, 40 mg/kg, at 15-25 min after injection, HIV1-CMV-GAD65-GFP-injected spastic rats): ≥ 4 mg/kg
anti-spasticity effect ([2]; systemic tiagabine in spastic rats injected spinally (L2-L5) with GAD65-encoding lentivirus (HIV1-CMV-GAD65-GFP)): potent, dose-dependent reduction in spasticity; also recorded: potent and tiagabine-dose-dependent alleviation of spasticity; also recorded: potent and significant anti-spasticity effect
anti-spasticity effect ([2]; tiagabine 40 mg/kg i.p. alone (monotherapy)): without anti-spasticity effect
anti-spasticity effect ([2]; tiagabine 40 mg/kg i.p. followed 15 min later by intrathecal GABA 1 mg): potent and highly significant anti-spasticity effect
anti-spasticity effect ([2]; tiagabine 40 mg/kg i.p. in spastic rats injected spinally with control HIV1-CMV-GFP lentivirus): no antispasicity effect; also recorded: without effect

— US20150343038A1, “METHOD AND COMPOSITION FOR TREATING SPASTICITY” (THE REGENTS OF THE UNIVERSITY OF CALIFORNIA, priority 2013, published 2015)
